In PubChem BioAssay (NCI):
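Test compounds were applied to cells in 96-well plates for 48 hours at 5 doses. GI50 is the concentration that inhibits growth by half. Definition used: TGI = concentration required for complete inhibition of growth.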

Each compound was assayed on SN12C renal (assay: NCI-60 cell line screen, 48 h).
Work on `Cc1c(N2CCOCC2)nc2ccc(Cl)cc2c1-c1ccccc1` yielded a TGI of over 100 µM.
`O=c1[nH]c(NCc2ccncc2)nc2nc[nH]c12` was tested, and the TGI was over 100 µM.
`Cc1ccc(-c2cc(-c3ccco3)c(C#N)c(=S)[nH]2)cc1` gave a TGI of over 100 µM.
With `Cc1cc([N+](=O)[O-])c(C)c2c1[nH]c1ccc(Cl)cc12` the TGI was over 100 µM.
`COc1ccc(C)cc1N1C(=O)C2ON(Cc3ccc(CC(N)=O)cc3)C(c3c4ccccc4c(Cl)c4ccccc34)C2C1=O` (configuration not stated) was tested, and the TGI was 45.7 µM.
Compound `COc1ccc(C2Oc3ccc(Cl)cc3C=C2[N+](=O)[O-])cc1` (configuration not stated) has a TGI of over 100 µM.
With `NS(=O)(=O)c1nnc(NC(=O)N(c2ccccc2)c2ccccc2)s1` the TGI was 40.8 µM.
With `COCOc1ccc(C(=O)Oc2cccc3c2OC(C)(C)O3)c(OCOC)c1` the TGI was over 100 µM.
Compound `COC(=O)c1ccccc1C1CN=NC12Cc1c(ccc(C)c1C)C2=O` (configuration not stated) has a TGI of over 100 µM.
`COc1cc2nc(-c3ccc(Cl)cc3)cc(OCCCN3CCOCC3)c2cc1OC` showed a GI50 of 1.3 µM and a TGI of over 100 µM.
`COC(=O)/C=C(\C)CC/C=C(\C)CCC1OC1(C)C` (configuration not stated) gave a TGI of 20.8 µM.
In the case of `COc1ccc(CNc2cnc3ccc(N)cc3n2)cc1`, the TGI was over 100 µM.
`COc1cccc(C2c3cc4c(cc3OC(O)C2C)OCO4)c1OC` (configuration not stated) gave a TGI of 64 µM.
With `CCOC(=O)/C=C/c1nc(C#N)c(N)o1` the TGI was over 100 µM.
In the case of `O=C1C=CC2(O[C@H](c3ccccc3)[C@@H](c3ccccc3)O2)[C@H](Sc2ccccc2O)C1`, the TGI was 0.353 µM.

These compounds were tested on SR leukemia (assay: NCI-60 cell line screen, 48 h).
Compound `COc1ccc2ccc3oc(=O)c(C)cc3c2c1` has a TGI of over 100 µM.
With `O=c1c(F)cn2c(=O)n1CCCCCCCn1c(=O)c(F)cn(c1=O)CCCCCCC2` the TGI was over 100 µM.
`Cc1nnc2n(c1=O)CCCN2C` was tested, and the TGI was over 100 µM.
With `O=C(ON=C1c2ccccc2C(Br)C(Br)c2ccccc21)c1ccccc1` (configuration not stated) the TGI was 9.12 µM.
For `CN(C)CCn1c(=O)c2ccc(NCCCN(C)CCCNc3ccc4c(=O)n(CCN(C)C)c(=O)n5c6ccc(O)cc6c(=O)c3c45)c3c(=O)c4cc(O)ccc4n(c1=O)c23`, the TGI was 0.642 µM.
`Cn1c2ccccc2n2c3ncccc3c(=O)c(C#N)c12` gave a TGI of over 100 µM.
`S=C(Cc1ccc2c(c1)Sc1ccccc1O2)N1CCOCC1` showed a TGI of over 100 µM.
In the case of `C[n+]1cc2cc(O)c(O)cc2c2ccc3cc(O)c(O)cc3c21`, the TGI was 9.53 µM.
`COc1ccc(N=Nc2c(-c3c(OC)cc4occc4c3OC)[nH]c(=O)c(C#N)c2C)cc1` was tested, and the TGI was over 100 µM.
Compound `c1ccc2c(c1)SCCCS2` has a TGI of over 100 µM.
`COc1ccc2c(c1)c1c(n2CCN2CCCCC2)-c2cccc(OC)c2CC1` gave a TGI of 44.7 µM.
Work on `COc1ccc2nc(NC(=O)/C(C#N)=C/c3ccccc3)sc2c1` yielded a TGI of 21.9 µM.
With `Cc1nc2ccc(Cl)cc2c(-n2ccnc2)c1CCn1ccnc1` the TGI was 20.5 µM.
`Cc1c(C)n(-c2ccccc2)c2nc(S(C)=O)nc(S(C)=O)c12` (configuration not stated) showed a TGI of 2.82 µM.
`CC1(C)CC(=O)C2=C(C1)C(c1ccccc1Cl)C1C(=O)CC(C)(C)CC1(O)O2` (configuration not stated) showed a TGI of over 100 µM.
For `Cn1nc(-c2ccc(S(=O)(=O)/N=C(\NN)Nc3ccc(Cl)cc3)s2)cc1C(F)(F)F`, the TGI was 41.7 µM.
Work on `Cc1ccc2c(c1C)C(=O)C1(Cc3cc4c(cc3C1=O)CCC4)C2` (configuration not stated) yielded a TGI of over 100 µM.
Compound `CCCCI(O)OS(=O)(=O)c1ccc(C)cc1` has a TGI of 73.3 µM.
`C[C@@H]1CC[C@@]2(C)C(C(=O)O)=CCCC2[C@@]1(C)CC(=O)c1ccoc1` (some centres not stated) gave a TGI of over 25 µM.
`O=C(CCc1cc(O)cc(O)c1)NCCc1cc(OCc2ccccc2)cc(OCc2ccccc2)c1` gave a TGI of 27 µM.
With `Clc1cccc(-c2sc(-c3cccs3)cc2Cc2cccs2)c1` the TGI was over 10 µM.
`c1ccc(-c2c(-c3ccccc3)[n+](Cc3ccc4ccccc4c3)c(-c3ccc(-c4nc5ccccc5s4)cc3)n2Cc2ccc3ccccc3c2)cc1` was tested, and the GI50 was 0.14 µM and the TGI was 0.756 µM.
In the case of `O=c1c2c3c(sc2[nH]c(=S)n1-c1ccccc1)CCCc1ccc([N+](=O)[O-])cc1-3`, the TGI was 85.8 µM.
Work on `CC(C)C(Br)CCC1=CCC(Br)(Br)C1` (configuration not stated) yielded a TGI of over 100 µM.
Compound `Cc1c2cccc-2c2cc(O)c3ccccc3c2n1-c1ccc(N(C)C)cc1` has a TGI of 26.4 µM.
`Cc1c(N2CCOCC2)nc2ccc(Cl)cc2c1-c1ccccc1` gave a TGI of over 100 µM.
For `Cc1ccc(-c2cc(-c3ccco3)c(C#N)c(=S)[nH]2)cc1`, the TGI was over 100 µM.
With `Cc1cc([N+](=O)[O-])c(C)c2c1[nH]c1ccc(Cl)cc12` the TGI was over 100 µM.
For `COc1ccc(C)cc1N1C(=O)C2ON(Cc3ccc(CC(N)=O)cc3)C(c3c4ccccc4c(Cl)c4ccccc34)C2C1=O` (configuration not stated), the TGI was 48.6 µM.
In the case of `COc1ccc(C2Oc3ccc(Cl)cc3C=C2[N+](=O)[O-])cc1` (configuration not stated), the TGI was over 100 µM.
In the case of `COc1cc2nc(-c3ccc(Cl)cc3)cc(OCCCN3CCOCC3)c2cc1OC`, the GI50 was 0.414 µM and the TGI was over 100 µM.
`COC(=O)/C=C(\C)CC/C=C(\C)CCC1OC1(C)C` (configuration not stated) was tested, and the TGI was 23.4 µM.
`CCOC(=O)C1C(c2ccc(Cl)cc2Cl)NC(c2ccc(C)cc2)C(C(=O)OC)S1(=O)=O` (configuration not stated) gave a TGI of over 100 µM.
With `COc1cccc(C2c3cc4c(cc3OC(O)C2C)OCO4)c1OC` (configuration not stated) the TGI was 11.3 µM.
`CCOC(=O)/C=C/c1nc(C#N)c(N)o1` was tested, and the TGI was over 100 µM.
`CN(/N=C1\C(=O)Nc2ccccc21)c1ccccc1` showed a TGI of over 100 µM.

These compounds were tested on TK-10 renal (assay: NCI-60 cell line screen, 48 h).
`COc1ccc2ccc3oc(=O)c(C)cc3c2c1` gave a TGI of over 100 µM.
`O=c1c(F)cn2c(=O)n1CCCCCCCn1c(=O)c(F)cn(c1=O)CCCCCCC2` gave a TGI of over 100 µM.
`Cc1nnc2n(c1=O)CCCN2C` was tested, and the TGI was over 100 µM.
`O=C(ON=C1c2ccccc2C(Br)C(Br)c2ccccc21)c1ccccc1` (configuration not stated) gave a TGI of 31.5 µM.
Compound `Nc1ncnc2c1nnn2C1C=CC(CP(=O)(O)O)C1` (configuration not stated) has a TGI of over 100 µM.
`CN(C)CCn1c(=O)c2ccc(NCCCN(C)CCCNc3ccc4c(=O)n(CCN(C)C)c(=O)n5c6ccc(O)cc6c(=O)c3c45)c3c(=O)c4cc(O)ccc4n(c1=O)c23` showed a TGI of 1.63 µM.
With `CC(=O)c1ccc(Oc2c3ccccc3nc3ccccc23)cc1` the TGI was 19.8 µM.
With `Cn1c2ccccc2n2c3ncccc3c(=O)c(C#N)c12` the TGI was over 100 µM.
`CCCCCCCCCCCCCCCCCCOc1ccccc1CC(=O)NCC[N+]1(C)CCOCC1` showed a GI50 of 1.9 µM and a TGI of 5.9 µM.
In the case of `S=C(Cc1ccc2c(c1)Sc1ccccc1O2)N1CCOCC1`, the TGI was over 100 µM.
In the case of `C[n+]1cc2cc(O)c(O)cc2c2ccc3cc(O)c(O)cc3c21`, the TGI was over 73.2 µM.
`COc1ccc(N=Nc2c(-c3c(OC)cc4occc4c3OC)[nH]c(=O)c(C#N)c2C)cc1` showed a TGI of over 100 µM.
`O=C(/C=C/c1ccc(Cl)cc1)Oc1ccc(C=C2CCC/C(=C\c3ccc(OC(=O)/C=C/c4ccc(Cl)cc4)cc3)C2=O)cc1` showed a TGI of over 100 µM.
For `c1ccc2c(c1)SCCCS2`, the TGI was over 100 µM.
For `COc1ccc2c(c1)c1c(n2CCN2CCCCC2)-c2cccc(OC)c2CC1`, the TGI was 32.8 µM.
Compound `COc1ccc2nc(NC(=O)/C(C#N)=C/c3ccccc3)sc2c1` has a TGI of 88 µM.
`Cc1nc2ccc(Cl)cc2c(-n2ccnc2)c1CCn1ccnc1` was tested, and the TGI was over 100 µM.
Compound `Cc1c(C)n(-c2ccccc2)c2nc(S(C)=O)nc(S(C)=O)c12` (configuration not stated) has a TGI of 7.36 µM.
For `CC1(C)CC(=O)C2=C(C1)C(c1ccccc1Cl)C1C(=O)CC(C)(C)CC1(O)O2` (configuration not stated), the TGI was over 100 µM.
`Cn1nc(-c2ccc(S(=O)(=O)/N=C(\NN)Nc3ccc(Cl)cc3)s2)cc1C(F)(F)F` showed a TGI of 35.6 µM.
Work on `CCc1c(O)cc(=O)oc1-c1ccc(OC)c(OC)c1` yielded a TGI of over 100 µM.
In the case of `Cc1ccc2c(c1C)C(=O)C1(Cc3cc4c(cc3C1=O)CCC4)C2` (configuration not stated), the TGI was over 100 µM.
Work on `CCCCI(O)OS(=O)(=O)c1ccc(C)cc1` yielded a TGI of over 100 µM.
For `C[C@@H]1CC[C@@]2(C)C(C(=O)O)=CCCC2[C@@]1(C)CC(=O)c1ccoc1` (some centres not stated), the TGI was over 25 µM.
`O=C(CCc1cc(O)cc(O)c1)NCCc1cc(OCc2ccccc2)cc(OCc2ccccc2)c1` was tested, and the TGI was 46.2 µM.
`Clc1cccc(-c2sc(-c3cccs3)cc2Cc2cccs2)c1` was tested, and the TGI was over 10 µM.
`O=c1c2c3c(sc2[nH]c(=S)n1-c1ccccc1)CCCc1ccc([N+](=O)[O-])cc1-3` was tested, and the TGI was over 100 µM.
Compound `CC1CC(N2CCOCC2)=Nc2ccccc2N1C` (configuration not stated) has a TGI of over 100 µM.
For `CC(C)C(Br)CCC1=CCC(Br)(Br)C1` (configuration not stated), the TGI was 31.4 µM.
Compound `CN(C)C(=O)C(F)(F)C(c1ccc(F)cc1)C1C(=O)N(C)C(=O)N(C)C1=O` (configuration not stated) has a TGI of over 100 µM.
In the case of `Cc1c2cccc-2c2cc(O)c3ccccc3c2n1-c1ccc(N(C)C)cc1`, the TGI was 32.5 µM.
Work on `Cc1c(N2CCOCC2)nc2ccc(Cl)cc2c1-c1ccccc1` yielded a TGI of over 100 µM.
Compound `O=c1[nH]c(NCc2ccncc2)nc2nc[nH]c12` has a TGI of over 100 µM.
Work on `Cc1ccc(-c2cc(-c3ccco3)c(C#N)c(=S)[nH]2)cc1` yielded a TGI of over 100 µM.
`Cc1cc([N+](=O)[O-])c(C)c2c1[nH]c1ccc(Cl)cc12` was tested, and the TGI was over 100 µM.
`COc1ccc(C)cc1N1C(=O)C2ON(Cc3ccc(CC(N)=O)cc3)C(c3c4ccccc4c(Cl)c4ccccc34)C2C1=O` (configuration not stated) was tested, and the TGI was 49.5 µM.
`COc1ccc(C2Oc3ccc(Cl)cc3C=C2[N+](=O)[O-])cc1` (configuration not stated) gave a TGI of over 100 µM.
For `NS(=O)(=O)c1nnc(NC(=O)N(c2ccccc2)c2ccccc2)s1`, the TGI was over 100 µM.
Compound `COCOc1ccc(C(=O)Oc2cccc3c2OC(C)(C)O3)c(OCOC)c1` has a TGI of over 100 µM.
With `COC(=O)c1ccccc1C1CN=NC12Cc1c(ccc(C)c1C)C2=O` (configuration not stated) the TGI was over 100 µM.
For `COC(=O)/C=C(\C)CC/C=C(\C)CCC1OC1(C)C` (configuration not stated), the TGI was 22.7 µM.
For `COc1ccc(CNc2cnc3ccc(N)cc3n2)cc1`, the TGI was over 100 µM.
`CCOC(=O)C1C(c2ccc(Cl)cc2Cl)NC(c2ccc(C)cc2)C(C(=O)OC)S1(=O)=O` (configuration not stated) gave a TGI of over 100 µM.
With `COc1cccc(C2c3cc4c(cc3OC(O)C2C)OCO4)c1OC` (configuration not stated) the TGI was 52 µM.
Work on `CCOC(=O)/C=C/c1nc(C#N)c(N)o1` yielded a TGI of over 100 µM.
With `O=C1C=CC2(O[C@H](c3ccccc3)[C@@H](c3ccccc3)O2)[C@H](Sc2ccccc2O)C1` the TGI was 0.966 µM.
`CN(/N=C1\C(=O)Nc2ccccc21)c1ccccc1` was tested, and the TGI was over 100 µM.
